Values quoted from earlier work in patent publication US5246920A, “Treatment of hyperprolactinemia” (University of South Florida, priority 1992, dated 1993).
Where no end group is shown, it is not given here. [ ]: non-standard residue; d: D form.

Test system: old rats
Details: peptides given individually

GHRH: Natural growth hormone releasing hormone, also known as growth hormone releasing factor (GHRF or GRF) (YADAIFTNSYRKVLGQLSARKLLQDIMSRQQGESNQERGARARL; ends and bridges not checked; UniProt P01286 32-75, looked up)
sensitivity of old rats to the individually administered peptides, in words: relatively insensitive

H[dW]AW[dF]K-NH2 [GHRP-6]
sensitivity of old rats to the individually administered peptides, in words: relatively insensitive
